Measured values: patent publication US9096602B2, “Substituted pyrrolo[2,3-B]pyrazines as ATR kinase inhibitors” (Vertex Pharmaceuticals Incorporated, priority 2011, dated 2015)
pKi: −log10 of the molar value. Like-named read-outs stand apart in the source and are kept apart here.

Molecular target: T1, ATR kinase (full-length ATR) (Homo sapiens, UniProt Q13535)
T1 construct: Assays were carried out at 25° C. in the presence of 5 nM full-length ATR
Test: ATR Inhibition Assay (radioactive-phosphate incorporation)
Type: biochemical
Method: Compounds were screened for their ability to inhibit ATR kinase using a radioactive-phosphate incorporation assay. Assays were carried out in a mixture of 50 mM Tris/HCl (pH 7.5), 10 mM MgCl2 and 1 mM DTT. Final substrate concentrations were 10 μM [y-33P]ATP (3mCi 33P ATP/mmol ATP, Perkin Elmer) and 800 μM target peptide ([…]).
Assays were carried out at 25° C. in the presence of 5 nM full-length ATR. An assay stock buffer solution was prepared containing all of the reagents listed above, with the exception of ATP and the test compound of interest. […] The plate was pre-incubated for 10 minutes at 25° C. and the reaction initiated by addition of 15 μL [y-33P]ATP (final concentration 10 μM).
The reaction was stopped after […] by the addition of 30 μL 0.1M phosphoric acid containing 2 mM ATP. A multiscreen phosphocellulose filter 96-well plate (Millipore, Cat no. MAPHN0B50) was pretreated with 100 μL 0.2M phosphoric acid prior to the addition of 45 μL of the stopped assay mixture. The plate was washed with 5×200 μL 0.2M phosphoric acid.
After removing mean background values for all of the data points, Ki(app) data were calculated from non-linear regression analysis of the initial rate data using the Prism software package (GraphPad Prism version 3.0cx for Macintosh, GraphPad Software, San Diego Calif., USA).

[1] = Ki(app), 5 nM full-length ATR, 10 μM ATP, 800 μM target peptide, 25° C., class symbols, read-out: ATR Inhibition Ki
[2] = Ki(app), 5 nM full-length ATR, 10 μM ATP, 800 μM target peptide, 25° C., given as numeric lower bound without unit, read-out: ATR Inhibition Ki

T1 sequence (Q13535 whole entry): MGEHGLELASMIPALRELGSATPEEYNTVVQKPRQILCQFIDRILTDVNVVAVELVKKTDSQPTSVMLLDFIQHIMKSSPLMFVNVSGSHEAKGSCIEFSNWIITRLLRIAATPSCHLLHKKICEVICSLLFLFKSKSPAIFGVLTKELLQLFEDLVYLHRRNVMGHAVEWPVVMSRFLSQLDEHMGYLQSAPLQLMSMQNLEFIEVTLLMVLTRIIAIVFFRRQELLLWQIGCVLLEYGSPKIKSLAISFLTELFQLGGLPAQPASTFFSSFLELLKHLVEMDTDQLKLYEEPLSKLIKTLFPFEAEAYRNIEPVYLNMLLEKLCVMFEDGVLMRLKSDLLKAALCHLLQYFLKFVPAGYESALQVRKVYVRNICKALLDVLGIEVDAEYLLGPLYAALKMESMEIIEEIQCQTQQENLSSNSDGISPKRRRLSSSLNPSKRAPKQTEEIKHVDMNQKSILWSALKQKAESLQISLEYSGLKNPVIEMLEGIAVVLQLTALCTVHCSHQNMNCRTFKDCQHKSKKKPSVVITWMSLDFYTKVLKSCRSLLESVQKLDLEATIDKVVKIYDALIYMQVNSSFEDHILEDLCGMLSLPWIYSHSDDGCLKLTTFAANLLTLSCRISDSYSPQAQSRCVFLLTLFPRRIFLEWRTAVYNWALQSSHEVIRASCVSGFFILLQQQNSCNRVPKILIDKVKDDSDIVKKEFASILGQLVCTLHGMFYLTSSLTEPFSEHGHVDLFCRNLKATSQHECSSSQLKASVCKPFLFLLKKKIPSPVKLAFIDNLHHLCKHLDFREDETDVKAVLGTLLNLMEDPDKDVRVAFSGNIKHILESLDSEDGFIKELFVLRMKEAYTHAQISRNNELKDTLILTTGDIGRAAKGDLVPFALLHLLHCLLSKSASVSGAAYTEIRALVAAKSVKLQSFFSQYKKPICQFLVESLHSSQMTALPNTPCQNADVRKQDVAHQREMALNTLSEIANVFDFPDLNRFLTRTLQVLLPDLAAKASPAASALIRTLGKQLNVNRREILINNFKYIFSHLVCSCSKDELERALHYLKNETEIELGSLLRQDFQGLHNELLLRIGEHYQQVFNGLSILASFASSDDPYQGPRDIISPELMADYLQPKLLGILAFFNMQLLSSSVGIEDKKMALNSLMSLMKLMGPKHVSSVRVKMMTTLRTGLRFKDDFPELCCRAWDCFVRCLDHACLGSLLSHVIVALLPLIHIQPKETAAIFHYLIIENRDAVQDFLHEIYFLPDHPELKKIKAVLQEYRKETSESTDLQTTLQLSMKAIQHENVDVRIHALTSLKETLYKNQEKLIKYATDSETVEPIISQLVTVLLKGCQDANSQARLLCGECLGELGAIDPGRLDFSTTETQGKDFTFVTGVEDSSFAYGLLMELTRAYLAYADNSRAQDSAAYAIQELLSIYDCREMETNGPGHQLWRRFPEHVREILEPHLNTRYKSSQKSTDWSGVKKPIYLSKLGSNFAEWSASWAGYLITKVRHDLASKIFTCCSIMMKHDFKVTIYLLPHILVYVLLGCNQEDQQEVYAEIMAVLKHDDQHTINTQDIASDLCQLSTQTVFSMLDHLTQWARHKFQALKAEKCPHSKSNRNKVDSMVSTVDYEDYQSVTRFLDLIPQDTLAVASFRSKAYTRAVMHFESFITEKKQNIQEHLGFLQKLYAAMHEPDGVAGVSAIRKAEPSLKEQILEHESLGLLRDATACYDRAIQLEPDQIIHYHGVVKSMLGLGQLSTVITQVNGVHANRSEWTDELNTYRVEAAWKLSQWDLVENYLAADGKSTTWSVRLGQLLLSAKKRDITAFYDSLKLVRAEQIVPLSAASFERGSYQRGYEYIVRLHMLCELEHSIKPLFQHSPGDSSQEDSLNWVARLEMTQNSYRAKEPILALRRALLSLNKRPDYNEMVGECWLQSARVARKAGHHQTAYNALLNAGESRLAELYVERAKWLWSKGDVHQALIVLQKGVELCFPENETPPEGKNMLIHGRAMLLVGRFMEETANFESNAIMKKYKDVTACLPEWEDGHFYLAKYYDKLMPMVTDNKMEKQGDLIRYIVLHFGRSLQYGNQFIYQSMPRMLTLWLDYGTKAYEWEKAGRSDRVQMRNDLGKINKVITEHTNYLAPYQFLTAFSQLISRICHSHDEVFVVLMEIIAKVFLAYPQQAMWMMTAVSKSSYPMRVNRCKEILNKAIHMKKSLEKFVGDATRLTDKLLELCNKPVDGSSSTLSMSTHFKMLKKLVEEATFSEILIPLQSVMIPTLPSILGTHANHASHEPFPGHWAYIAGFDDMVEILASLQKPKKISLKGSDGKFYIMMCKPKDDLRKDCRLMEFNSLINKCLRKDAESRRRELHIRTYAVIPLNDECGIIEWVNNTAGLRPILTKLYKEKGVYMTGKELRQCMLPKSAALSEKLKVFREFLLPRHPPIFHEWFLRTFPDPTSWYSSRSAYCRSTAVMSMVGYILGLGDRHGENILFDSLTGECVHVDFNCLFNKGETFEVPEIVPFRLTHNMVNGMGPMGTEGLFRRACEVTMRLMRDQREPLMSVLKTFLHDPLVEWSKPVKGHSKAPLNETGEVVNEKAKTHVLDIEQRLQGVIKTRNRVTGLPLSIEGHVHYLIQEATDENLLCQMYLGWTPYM

| SMILES | pKi [1] | also measured |
| --- | --- | --- |
| CC(C)S(=O)(=O)c1ccc(-c2cnc3[nH]cc(C(=O)NCc4ccncc4)c3n2)cc1 [Compound I-60, 2-(4-isopropylsulfonylphenyl)-N-(4-pyridylmethyl)-5H-pyrrolo[2,3-b]pyrazine-7-carboxamide] | 6.30 to 7.00 | – |
| CC(C)S(=O)(=O)c1ccc(-c2cnc3[nH]cc(C(=O)NC(CCO)c4cccc(O)c4)c3n2)cc1 (stereo not shown) [Compound I-77, N-[3-hydroxy-1-(3-hydroxyphenyl)propyl]-2-(4-isopropylsulfonylphenyl)-5H-pyrrolo[2,3-b]pyrazine-7-carboxamide] | 6.30 to 7.00 | – |
| CC(C)S(=O)(=O)c1ccc(-c2cnc3[nH]cc(C(=O)N(CCO)c4ccccc4)c3n2)cc1 [Compound I-10, N-(2-hydroxyethyl)-2-(4-isopropylsulfonylphenyl)-N-phenyl-5H-pyrrolo[2,3-b]pyrazine-7-carboxamide] | 6.30 to 7.00 | – |
| CC(C)S(=O)(=O)c1ccc(-c2cnc3[nH]cc(C(=O)N[C@H](C)[C@@H](O)c4ccc(O)cc4)c3n2)cc1 [Compound I-84, N-[(1R,2S)-2-hydroxy-2-(4-hydroxyphenyl)-1-methyl-ethyl]-2-(4-isopropylsulfonylphenyl)-5H-pyrrolo[2,3-b]pyrazine-7-carboxamide] | 6.30 to 7.00 | – |
| CC(C)S(=O)(=O)c1ccc(-c2cnc3[nH]cc(C(=O)N4CCC5(CC4)OCCO5)c3n2)cc1 [Compound I-128, 1,4-dioxa-8-azaspiro[4.5]decan-8-yl-[2-(4-isopropylsulfonylphenyl)-5H-pyrrolo[2,3-b]pyrazin-7-yl]methanone] | – | pKi: > 7.00 |
| CC(C)S(=O)(=O)c1ccc(-c2cnc3[nH]cc(C(=O)NOc4ccccc4)c3n2)cc1 [Compound I-100, 2-(4-isopropylsulfonylphenyl)-N-phenoxy-5H-pyrrolo[2,3-b]pyrazine-7-carboxamide] | > 7.00 | – |
| CC(C)S(=O)(=O)c1ccc(-c2cnc3[nH]cc(C(=O)N[C@@H](C)c4ccc(F)cc4)c3n2)cc1 [Compound I-74, N-[(1S)-1-(4-fluorophenyl)ethyl]-2-(4-isopropylsulfonylphenyl)-5H-pyrrolo[2,3-b]pyrazine-7-carboxamide] | 5.30 to 6.30 | – |
| Cc1cccc(C)c1CNC(=O)c1c[nH]c2ncc(-c3ccc(S(=O)(=O)C(C)C)cc3)nc12 [Compound I-89, N-[(2,6-dimethylphenyl)methyl]-2-(4-isopropylsulfonylphenyl)-5H-pyrrolo[2,3-b]pyrazine-7-carboxamide] | > 7.00 | – |
| CC(C)S(=O)(=O)c1ccc(-c2cnc3[nH]cc(C(=O)N[C@H](C)c4ccccc4)c3n2)cc1 [Compound I-45, 2-(4-isopropylsulfonylphenyl)-N-[(1R)-1-phenylethyl]-5H-pyrrolo[2,3-b]pyrazine-7-carboxamide] | > 7.00 | – |
| COC[C@H](NC(=O)c1c[nH]c2ncc(-c3ccc(S(=O)(=O)C(C)C)cc3)nc12)c1ccccc1 [Compound I-58, 2-(4-isopropylsulfonylphenyl)-N-[(1R)-2-methoxy-1-phenyl-ethyl]-5H-pyrrolo[2,3-b]pyrazine-7-carboxamide] | 5.30 to 6.30 | – |
| CC(C)S(=O)(=O)c1ccc(-c2cnc3[nH]cc(C(=O)NCc4cccc(Cl)c4)c3n2)cc1 [Compound I-46, N-[(3-chlorophenyl)methyl]-2-(4-isopropylsulfonylphenyl)-5H-pyrrolo[2,3-b]pyrazine-7-carboxamide] | – | pKi [2]: < 6.60 |
| CC(C)S(=O)(=O)c1ccc(-c2cnc3[nH]cc(C(=O)NC4CCc5ccccc54)c3n2)cc1 (stereo not shown) [Compound I-53, N-indan-1-yl-2-(4-isopropylsulfonylphenyl)-5H-pyrrolo[2,3-b]pyrazine-7-carboxamide] | > 7.00 | – |
| CC(C)S(=O)(=O)c1ccc(-c2cnc3[nH]cc(C(=O)N[C@@H](C(N)=O)c4ccccc4)c3n2)cc1 [Compound I-123, N-[(1R)-2-amino-2-oxo-1-phenyl-ethyl]-2-(4-isopropylsulfonylphenyl)-5H-pyrrolo[2,3-b]pyrazine-7-carboxamide] | 6.30 to 7.00 | – |
| CC(C)S(=O)(=O)c1ccc(-c2cnc3[nH]cc(C(=O)NCc4ccc(N(C)C)cc4)c3n2)cc1 [Compound I-49, N-[(4-dimethylaminophenyl)methyl]-2-(4-isopropylsulfonylphenyl)-5H-pyrrolo[2,3-b]pyrazine-7-carboxamide] | > 7.00 | – |
| Cc1cccc([C@@H](CCO)NC(=O)c2c[nH]c3ncc(-c4ccc(S(=O)(=O)C(C)C)cc4)nc23)c1 [Compound I-102, N-[(1R)-3-hydroxy-1-(m-tolyl)propyl]-2-(4-isopropylsulfonylphenyl)-5H-pyrrolo[2,3-b]pyrazine-7-carboxamide] | 6.30 to 7.00 | – |
| CC(C)S(=O)(=O)c1ccc(-c2cnc3[nH]cc(C(=O)Nc4cccc(N)c4)c3n2)cc1 [Compound I-20, N-(3-aminophenyl)-2-(4-isopropylsulfonylphenyl)-5H-pyrrolo[2,3-b]pyrazine-7-carboxamide] | > 7.00 | – |

| SMILES | pKi [1] | also measured |
| --- | --- | --- |
| CC(C)S(=O)(=O)c1ccc(-c2cnc3[nH]cc(C(=O)NC4CCC(CO)CC4)c3n2)cc1 (stereo not shown) [Compound I-127, N-[4-(hydroxymethyl)cyclohexyl]-2-(4-isopropylsulfonylphenyl)-5H-pyrrolo[2,3-b]pyrazine-7-carboxamide] | > 7.00 | – |
| CC(C)S(=O)(=O)c1ccc(-c2cnc3[nH]cc(C(=O)NC[C@@H](O)c4ccccc4)c3n2)cc1 [Compound I-62, N-[(2S)-2-hydroxy-2-phenyl-ethyl]-2-(4-isopropylsulfonylphenyl)-5H-pyrrolo[2,3-b]pyrazine-7-carboxamide] | > 7.00 | – |
| CC(C)S(=O)(=O)c1ccc(-c2cnc3[nH]cc(C(=O)N[C@@H](C)CO)c3n2)cc1 [Compound I-106, N-[(1S)-2-hydroxy-1-methyl-ethyl]-2-(4-isopropylsulfonylphenyl)-5H-pyrrolo[2,3-b]pyrazine-7-carboxamide] | 6.30 to 7.00 | – |
| CC(C)S(=O)(=O)c1ccc(-c2cnc3[nH]cc(C(=O)N4CCCNCC4)c3n2)cc1 [Compound I-136, 1,4-diazepan-1-yl-[2-(4-isopropylsulfonylphenyl)-5H-pyrrolo[2,3-b]pyrazin-7-yl]methanone] | – | pKi [2]: < 6.60 |
| CC(C)S(=O)(=O)c1ccc(-c2cnc3[nH]cc(C(=O)N4CCCN(C)CC4)c3n2)cc1 [Compound I-96, [2-(4-isopropylsulfonylphenyl)-5H-pyrrolo[2,3-b]pyrazin-7-yl]-(4-methyl-1,4-diazepan-1-yl)methanone] | – | pKi [2]: < 5.40 |
| CC(C)S(=O)(=O)c1ccc(-c2cnc3[nH]cc(C(=O)N4CCNCC4)c3n2)cc1 [Compound I-137, [2-(4-isopropylsulfonylphenyl)-5H-pyrrolo[2,3-b]pyrazin-7-yl]-piperazin-1-yl-methanone] | – | pKi [2]: < 6.60 |
| CC(C)S(=O)(=O)c1ccc(-c2cnc3[nH]cc(C(=O)N(C)c4ccccc4)c3n2)cc1 [Compound I-3, 2-(4-isopropylsulfonylphenyl)-N-methyl-N-phenyl-5H-pyrrolo[2,3-b]pyrazine-7-carboxamide] | – | pKi [2]: < 6.60 |
| CC(C)S(=O)(=O)c1ccc(-c2cnc3[nH]cc(C(=O)NC4(CO)CC4)c3n2)cc1 [Compound I-113, N-[1-(hydroxymethyl)cyclopropyl]-2-(4-isopropylsulfonylphenyl)-5H-pyrrolo[2,3-b]pyrazine-7-carboxamide] | – | pKi [2]: < 6.00 |
| CC[C@@H](CO)NC(=O)c1c[nH]c2ncc(-c3ccc(S(=O)(=O)C(C)C)cc3)nc12 [Compound I-117, N-[(1S)-1-(hydroxymethyl)propyl]-2-(4-isopropylsulfonylphenyl)-5H-pyrrolo[2,3-b]pyrazine-7-carboxamide] | 6.30 to 7.00 | – |
| COc1ccc(NC(=O)c2c[nH]c3ncc(-c4ccc(S(=O)(=O)C(C)C)cc4)nc23)cc1 [Compound I-12, 2-(4-isopropylsulfonylphenyl)-N-(4-methoxyphenyl)-5H-pyrrolo[2,3-b]pyrazine-7-carboxamide] | 6.30 to 7.00 | – |
| CC(C)S(=O)(=O)c1ccc(-c2cnc3[nH]cc(C(=O)NC4CCOc5ccccc54)c3n2)cc1 (stereo not shown) [Compound I-86, N-chroman-4-yl-2-(4-isopropylsulfonylphenyl)-5H-pyrrolo[2,3-b]pyrazine-7-carboxamide] | > 7.00 | – |
| Cc1ccc([C@H](CCO)NC(=O)c2c[nH]c3ncc(-c4ccc(S(=O)(=O)C(C)C)cc4)nc23)cc1 [Compound I-91, N-[(1S)-3-hydroxy-1-(p-tolyl)propyl]-2-(4-isopropylsulfonylphenyl)-5H-pyrrolo[2,3-b]pyrazine-7-carboxamide] | 6.30 to 7.00 | – |
| CC(C)S(=O)(=O)c1ccc(-c2cnc3[nH]cc(C(=O)N4CCOc5ccccc5C4)c3n2)cc1 [Compound I-130, 3,5-dihydro-2H-1,4-benzoxazepin-4-yl-[2-(4-isopropylsulfonylphenyl)-5H-pyrrolo[2,3-b]pyrazin-7-yl]methanone] | – | pKi [2]: < 6.60 |
| CC(C)S(=O)(=O)c1ccc(-c2cnc3[nH]cc(C(=O)NCc4cccc(Cl)c4F)c3n2)cc1 [Compound I-92, N-[(3-chloro-2-fluoro-phenyl)methyl]-2-(4-isopropylsulfonylphenyl)-5H-pyrrolo[2,3-b]pyrazine-7-carboxamide] | > 7.00 | – |
| CC(C)S(=O)(=O)c1ccc(-c2cnc3[nH]cc(C(=O)Nc4ccccn4)c3n2)cc1 [Compound I-4, 2-(4-isopropylsulfonylphenyl)-N-(2-pyridyl)-5H-pyrrolo[2,3-b]pyrazine-7-carboxamide] | 6.30 to 7.00 | – |
